Here are results for 23 compounds from ChEMBL document CHEMBL5380850, “Discovery of the First Raptor (Regulatory-Associated Protein of mTOR) Inhibitor as a New Type of Antiadipogenic Agent” (J Med Chem, 2023).

The source made the active and inactive calls. No cut-off for these calls is given here. Where only a bound is given, the exact number is not on record here.

The first experiment has as its system 3T3-L1. Briefly: Anti-adipogenic activity against mouse 3T3-L1 cells assessed as decrease in triglyceride level at 1 uM by Oil Red O staining based spectroscopic analysis. It counts as functional. More on the design: scale not given: the % may be the effect or the level left.
Conditions: not given
Regarding `C=C(C)[C@@]12OC3(/C=C/C=C/CCCCC)O[C@@H]1[C@@H]1[C@@H]4O[C@]4(CO)[C@@H](O)[C@]4(O)C(=O)C(C)=C[C@H]4[C@@]1(O3)[C@H](C)[C@H]2OC(=O)CCC`, the Activity was more than 50%. In the case of `C=C(C)[C@@]12OC3(c4ccccc4)O[C@@H]1[C@@H]1[C@@H]4O[C@]4(CO)[C@@H](O)[C@]4(O)C(=O)C(C)=C[C@H]4[C@@]1(O3)[C@H](C)[C@H]2OC(=O)CC`, the Activity is on record as more than 50%. Same read-out and setting: as for `C=C(C)[C@@]12OC3(c4ccccc4)O[C@@H]1[C@@H]1[C@@H]4O[C@]4(COC(=O)c4ccccc4)[C@@H](O)[C@]4(O)C(=O)C(C)=C[C@H]4[C@@]1(O3)[C@H](C)[C@H]2OC(C)=O`, the figure is more than 50%; as for `C=C(C)[C@@]12OC3(/C=C/C=C/CCCCC)O[C@@H]1[C@@H]1[C@@H]4O[C@]4(COC(C)=O)[C@@H](OC(C)=O)[C@]4(O)C(=O)C(C)=C[C@H]4[C@@]1(O3)[C@H](C)[C@H]2OC(C)=O`, more than 50%. As to `C=C(C)[C@@]12OC3(c4ccccc4)O[C@@H]1[C@@H]1[C@@H]4O[C@]4(COC(=O)c4ccccc4)[C@@H](O)[C@]4(O)C(=O)C(C)=C[C@H]4[C@@]1(O3)[C@H](C)[C@H]2OC(=O)c1ccccc1`, the Activity is more than 50%.

With `C=C(C)[C@@]12OC3(/C=C/C=C/CCCCC)O[C@@H]1[C@@H]1[C@@H]4O[C@]4(CO)[C@@H](O)[C@]4(O)C(=O)C(C)=C[C@H]4[C@@]1(O3)[C@H](C)[C@H]2OC(C)=O`, the Activity is given as more than 50%. Same read-out and setting: for `C=C(C)[C@@]12OC3(c4ccccc4)O[C@@H]1[C@@H]1[C@@H]4O[C@]4(COC(C)=O)[C@@H](O)[C@]4(O)C(=O)C(C)=C[C@H]4[C@@]1(O3)[C@H](C)[C@H]2OC(C)=O` the value was more than 50%. On the same count and under the same terms, as for `C=C(C)[C@@]12OC3(c4ccccc4)O[C@@H]1[C@@H]1[C@@H](Cl)[C@@](O)(COC(=O)c4ccccc4)[C@@H](O)[C@]4(O)C(=O)C(C)=C[C@H]4[C@@]1(O3)[C@H](C)[C@H]2OC(C)=O`, the figure is more than 50%; as for `C=C(C)[C@@]12OC3(c4ccccc4)O[C@@H]1[C@@H]1[C@@H]4O[C@]4(COC(C)=O)[C@@H](O)[C@]4(O)C(=O)C(C)=C[C@H]4[C@@]1(O3)[C@H](C)[C@H]2OC(=O)c1ccccc1`, more than 50%. The same measure, in the same setting: for `C=C(C)[C@@]12OC3(c4ccccc4)O[C@@H]1[C@@H]1[C@@H](Cl)[C@@](O)(CO)[C@@H](O)[C@]4(O)C(=O)C(C)=C[C@H]4[C@@]1(O3)[C@H](C)[C@H]2OC(C)=O` the value was more than 50%. Consider `C=C(C)[C@@]12OC3(/C=C/C=C/CCCCC)O[C@@H]1[C@@H]1[C@@H]4O[C@]4(COC(C)=O)[C@@H](O)[C@]4(O)C(=O)C(C)=C[C@H]4[C@@]1(O3)[C@H](C)[C@H]2OC(C)=O`, for which the Activity is more than 50%. Consider `C=C(C)[C@@]12OC3(/C=C/C=C/CCCCC)O[C@@H]1[C@@H]1[C@@H]4O[C@]4(COC(=O)c4ccccc4)[C@@H](O)[C@]4(O)C(=O)C(C)=C[C@H]4[C@@]1(O3)[C@H](C)[C@H]2OC(C)=O`, for which the Activity is recorded as more than 50%. As for `C=C(C)[C@@]12OC3(c4ccccc4)O[C@@H]1[C@@H]1[C@@H]4O[C@]4(CO)[C@@H](O)[C@]4(O)C(=O)C(C)=C[C@H]4[C@@]1(O3)[C@H](C)[C@H]2OC(C)=O`, the Activity was more than 50%. As to `C=C(C)[C@@]12OC3(c4ccccc4)O[C@@H]1[C@@H]1[C@H](O)[C@](Cl)(CO)[C@@H](O)[C@]4(O)C(=O)C(C)=C[C@H]4[C@@]1(O3)[C@H](C)[C@H]2OC(C)=O`, the Activity is listed as more than 50%. Consider `C=C(C)[C@@]12OC3(/C=C/C=C/CCCCC)O[C@@H]1[C@@H]1[C@@H]4O[C@]4(COC(C)=O)[C@@H](OC(C)=O)[C@]4(O)C(=O)C(C)=C[C@H]4[C@@]1(O3)[C@H](C)[C@H]2OC(=O)c1ccccc1`, for which the Activity is given as more than 50%. As for `C=C(C)[C@@]12OC3(c4ccccc4)O[C@@H]1[C@@H]1[C@H](O)[C@](Cl)(CO)[C@@H](O)[C@]4(O)C(=O)C(C)=C[C@H]4[C@@]1(O3)[C@H](C)[C@H]2OC(=O)c1ccccc1`, the Activity was more than 50%. Still for that read-out and setting: for `C=C(C)[C@@]12OC3(/C=C/C=C/CCCCC)O[C@@H]1[C@@H]1[C@@H]4O[C@]4(CO)[C@@H](O)[C@]4(O)C(=O)C(C)=C[C@H]4[C@@]1(O3)[C@H](C)[C@H]2OC(=O)c1ccccc1` the value was more than 50%; for `C=C(C)[C@@]12OC3(/C=C/C=C/CCCCC)O[C@@H]1[C@@H]1[C@@H]4O[C@]4(COC(C)=O)[C@@H](O)[C@]4(O)C(=O)C(C)=C[C@H]4[C@@]1(O3)[C@H](C)[C@H]2OC(=O)c1ccccc1`, more than 50%. As for `C=C(C)[C@@]12OC3(c4ccccc4)O[C@@H]1[C@@H]1[C@@H]4O[C@]4(CO)[C@@H](O)[C@]4(O)C(=O)[C@@H](C)C[C@H]4[C@@]1(O3)[C@H](C)[C@H]2OC(=O)c1ccccc1`, the Activity is recorded as more than 50%.

For the compound `C=C(C)[C@@]12OC3(c4ccccc4)O[C@@H]1[C@@H]1[C@@H](Cl)[C@@](O)(CO)[C@@H](O)[C@]4(O)C(=O)C(C)=C[C@H]4[C@@]1(O3)[C@H](C)[C@H]2OC(=O)c1ccccc1`, the Activity is more than 50%. Turning to `C=C(C)[C@@]12OC3(c4ccccc4)O[C@@H]1[C@@H]1[C@@H]4O[C@]4(CO)[C@@H](O)[C@]4(O)C(=O)C(C)=C[C@H]4[C@@]1(O3)[C@H](C)[C@H]2OC(=O)CCC`, the Activity is given as more than 50%.

As for `C=C(C)[C@@]12OC3(c4ccccc4)O[C@@H]1[C@@H]1[C@@H]4O[C@]4(CO)[C@@H](O)[C@]4(O)C(=O)C(C)=C[C@H]4[C@@]1(O3)[C@H](C)[C@H]2OC(=O)c1ccccc1`, the Activity is more than 50%.

Another experiment relates to 3T3-L1. Nature of the experiment: Anti-adipogenic activity against mouse 3T3-L1 cells assessed as decrease in triglyceride level incubated for […] by Oil Red O staining based microscopic analysis. It is filed as functional, cell-based.
Conditions: not given
With `C=C(C)[C@@]12OC3(c4ccccc4)O[C@@H]1[C@@H]1[C@H](O)[C@](Cl)(COC(=O)c4ccccc4)[C@@H](OC(=O)CCCCCNC(=O)CCCC[C@@H]4SC[C@@H]5NC(=O)N[C@@H]54)[C@]4(O)C(=O)C(C)=C[C@H]4[C@@]1(O3)[C@H](C)[C@H]2OC(C)=O`, the 50% inhibitory concentration (IC50) was determined as 1.05 µM.

The target in the next experiment is Regulatory-associated protein of mTOR (Mus musculus) (UniProt Q8K4Q0). Nature of the experiment: Binding affinity to Raptor in mouse 3T3-L1 cells at 1 to 10 uM incubated overnight by pull-down assay. Particulars: dose 1-10 µM.
Chain of Regulatory-associated protein of mTOR (Mus musculus) (Q8K4Q0 whole entry, looked up): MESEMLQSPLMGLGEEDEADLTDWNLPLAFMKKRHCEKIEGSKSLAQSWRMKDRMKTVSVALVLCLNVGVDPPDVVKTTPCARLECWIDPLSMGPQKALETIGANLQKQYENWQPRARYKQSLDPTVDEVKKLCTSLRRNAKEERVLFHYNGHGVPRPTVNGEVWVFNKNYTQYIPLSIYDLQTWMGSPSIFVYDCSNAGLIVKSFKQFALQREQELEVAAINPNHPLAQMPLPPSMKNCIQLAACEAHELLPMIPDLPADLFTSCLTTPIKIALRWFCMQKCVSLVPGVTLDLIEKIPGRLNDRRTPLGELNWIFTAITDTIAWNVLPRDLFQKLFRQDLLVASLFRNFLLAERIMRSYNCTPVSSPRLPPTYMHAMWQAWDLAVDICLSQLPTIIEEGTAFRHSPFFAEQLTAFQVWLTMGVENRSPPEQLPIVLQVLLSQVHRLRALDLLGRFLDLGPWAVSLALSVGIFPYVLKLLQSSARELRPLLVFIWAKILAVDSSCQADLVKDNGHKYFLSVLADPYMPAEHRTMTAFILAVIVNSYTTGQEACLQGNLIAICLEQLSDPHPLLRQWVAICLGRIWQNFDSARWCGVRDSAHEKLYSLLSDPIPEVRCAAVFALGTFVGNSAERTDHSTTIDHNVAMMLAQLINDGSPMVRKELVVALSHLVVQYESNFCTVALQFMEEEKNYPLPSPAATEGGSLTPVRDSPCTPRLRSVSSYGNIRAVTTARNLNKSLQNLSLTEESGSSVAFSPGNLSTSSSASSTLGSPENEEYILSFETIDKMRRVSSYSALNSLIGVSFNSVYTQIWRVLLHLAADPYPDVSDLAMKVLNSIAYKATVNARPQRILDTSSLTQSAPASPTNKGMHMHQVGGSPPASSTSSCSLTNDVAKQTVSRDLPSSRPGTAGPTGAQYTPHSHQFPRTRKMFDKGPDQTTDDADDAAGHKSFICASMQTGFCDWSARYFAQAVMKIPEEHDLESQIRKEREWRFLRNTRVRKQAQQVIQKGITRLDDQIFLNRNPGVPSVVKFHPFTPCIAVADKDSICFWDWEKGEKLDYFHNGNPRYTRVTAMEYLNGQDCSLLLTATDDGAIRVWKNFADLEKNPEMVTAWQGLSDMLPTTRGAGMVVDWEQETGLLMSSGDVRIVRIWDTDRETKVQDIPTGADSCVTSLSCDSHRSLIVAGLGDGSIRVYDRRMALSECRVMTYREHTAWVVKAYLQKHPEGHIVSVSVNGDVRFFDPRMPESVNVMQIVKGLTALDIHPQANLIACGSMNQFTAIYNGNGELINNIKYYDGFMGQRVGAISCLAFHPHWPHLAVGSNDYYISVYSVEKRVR
Take `C=C(C)[C@@]12OC3(c4ccccc4)O[C@@H]1[C@@H]1[C@H](O)[C@](Cl)(COC(=O)c4ccccc4)[C@@H](OC(=O)CCCCCNC(=O)CCCC[C@@H]4SC[C@@H]5NC(=O)N[C@@H]54)[C@]4(O)C(=O)C(C)=C[C@H]4[C@@]1(O3)[C@H](C)[C@H]2OC(C)=O`: the result was Active.

One may read the IC50 as the point on the concentration scale where inhibition reaches its midpoint.
